Measured values reported in patent US12343350B2, “Istaroxime-containing intravenous formulation for the treatment of acute heart failure (AHF)” (Windtree Therapeutics, Inc., priority 2019, dated 2025).

System: patients with Acute Decompensated Heart Failure
Assay: Clinical study of istaroxime 24 h i.v. infusion in Acute Decompensated Heart Failure, echocardiography
Assay type: in vivo, human
Protocol: Echocardiography was performed on patients according to international standards (see, for example, Lang R M et al., J Am Soc Echocardiogr 2005; 18(12):1440-63; Nagueh S F et al., Eur J Echocardiogr 2009; 10(2):165-93; Evangelista A et al., Eur J Echocardiogr 2008; 9(4):438-48). Echocardiography was performed by expert physicians or sonographers at the sites. Echocardiography was done at screening, baseline, 6 hours after infusion start, 24 hours after infusion start (just before the end of infusion), and 48 hours after infusion start.
The following parameters were recorded for each patient at each timepoint and centrally measured by the CoreLab: • 1. Cardiac dimension measures: • a. Left ventricle end diastolic diameter (EDD): measured with M-mode echocardiography at the level of mitral valve (MV) leaflets from parasternal long axis view (PLAX) (normal range [NR]: 42-59 mm males and 39-53 mm females); • b. Left ventricle end systolic diameter (ESD): measured with M-mode echocardiography at the level of mitral valve (MV) leaflets from PLAX (NR: 25-35 mm); • c. Left ventricle end diastolic volume (EDV): measured with M-mode echocardiography at the level of mitral valve (MV) leaflets from PLAX (NR: 67-155 mL males and 56-104 mL females); • d. Left ventricle end systolic volume (ESV): measured with M-mode echocardiography at the level of mitral valve (MV) leaflets from PLAX (NR: 22-58 mL males and 19-49 mL females); • e. Left atrium diameter (LAD): measured at end-ventricular systole with M-mode echocardiography from PLAX. (NR: 30-40 mm males and 27-38 mm females) • f. Left atrium area (LAA): measured from apical four chamber view ([…]); and • g. Left atrium volume (LAV): derived from area-length measured from apical four chamber view (NR: 18-58 mL males and 22-52 mL females). • 2. Left ventricle diastolic function parameters: • a. E wave: measured from mitral valve pulsed wave Doppler, is the peak velocity of early filling. […] A wave: measured from mitral valve pulsed wave Doppler is the peak velocity of late atrial filling. Not evaluable in patients with AF; • c. E wave deceleration time (EDT): measured from mitral valve pulsed wave Doppler represent the slope of the descending part of E wave; • d. E/A ratio: determines the type of diastolic filling pattern (normal E/A=1-2 and EDT=150-200 ms, abnormal relaxation E/A<1 and […], pseudonormal E/A=0.8-1.5; restrictive […] and EDT<160 ms). Not evaluable in patients with AF; • e. Ea: measured with tissue Doppler method at the lateral and septal side of the mitral annulus from apical four chamber view is the early diastolic velocity. The value has been calculated as the average between Ea lateral and Ea septal. ([…]) (see Nagueh S F et al., Eur J Echocardiogr. 2009; 10(2):165-93); • f. Aa: measured with tissue Doppler method at the lateral and septal side of the mitral annulus from apical four chamber view is the late atrial diastolic velocity. The value has been calculated as the average between Aa lateral and Aa septal. Not evaluable in patients with AF; and • g. E/Ea ratio: this is a derived measure from E and Ea value. This is highly correlated with left ventricle filling pressure and with prognosis in patients with HF. (NR: <13) (see Nagueh S F et al., supra). • 3. Left ventricle systolic function parameters: • a. Left ventricle ejection fraction (LVEF): measured with Simpson biplane method according to international recommendations from apical four chamber view and apical two chamber view. ([…]) (see Lang R M et al., J Am Soc Echocardiogr. 2005; 18(12):1440-63); and • b. Sa: measured with tissue Doppler method at the lateral and septal side of the mitral annulus from apical four chamber view. The value has been calculated as the average between Sa lateral and Sa septal. […] Overall cardiac contraction parameters: • a. […]

[1] = 0.5 μg/kg/min i.v. for 24 h, at 48 hours
[2] = 0.5 μg/kg/min i.v., at 6 hours of infusion
[3] = 0.5 μg/kg/min i.v., at 24 hours of infusion
[4] = 1.0 μg/kg/min i.v. for 24 h, at 48 hours
[5] = 1.0 μg/kg/min i.v., at 6 hours of infusion
[6] = 1.0 μg/kg/min i.v., at 24 hours of infusion

SMILES: C[C@]12CCC(=NOCCN)C[C@@H]1C(=O)C[C@@H]1[C@@H]2CC[C@]2(C)C(=O)CC[C@@H]12 [Istaroxime, (3Z,5a)-3-[(2-aminoethoxy)imino]androstane-6,17-dione]
- CI change [1]: 0.191 ± 0.426 l/min/m^2
- CO change [1]: 0.350 ± 0.788 L/min
- E/A ratio change [1]: −0.278 ± 1.043
- E/e′ ratio change [1]: −2.570 ± 3.654
- LVEF change [1]: 1.28 ± 3.693%
- SV change [1]: 4.815 ± 9.832 ml/beat
- SVI change [1]: 2.762 ± 5.603 ml/beat/m^2
- Sa change [1]: 0.224 ± 0.811 cm/s
- A wave change [2]: 1.76 ± 13.572 cm/s
- CI change [2]: 0.209 ± 0.445 l/min/m2
- CO change [2]: 0.385 ± 0.843 L/min
- E wave change [2]: -3.33 ± 14.764 cm/s
- E/A ratio change [2]: −0.286 ± 0.866
- E/e′ ratio change [2]: −3.183 ± 5.628
- EDT change [2]: 6.83 ± 47.921 ms
- LAA change [2]: −0.33 ± 1.885 cm^2
- LAV change [2]: -1.16 ± 11.265 mL
- S Right V change [2]: 1.25 ± 2.185 cm/s
- SV change [2]: 7.724 ± 11.752 ml/beat
- SVI change [2]: 4.198 ± 6.218 ml/beat/m2
- Sa Left V change [2]: 0.613 ± 1.035 cm/s
- e′ change [2]: 0.61 ± 1.010 cm/s
- A wave change [3]: 5.13 ± 10.990 cm/s
- CI change [3]: 0.264 ± 0.369 l/min/m2
- CO change [3]: 0.486 ± 0.696 L/min
- E wave change [3]: -8.14 ± 17.640 cm/s
- E/A ratio change [3]: −0.647 ± 0.812
- E/e′ ratio change [3]: −4.548 ± 4.754
- EDT change [3]: 12.88 ± 54.954 ms
- LAA change [3]: −1.70 ± 2.463 cm^2
- LAV change [3]: -7.94 ± 13.269 mL
- S Right V change [3]: 1.10 ± 1.780 cm/s
- SV change [3]: 9.725 ± 12.192 ml/beat
- SVI change [3]: 5.333 ± 6.664 ml/beat/m2
- Sa Left V change [3]: 0.679 ± 0.907 cm/s
- e′ change [3]: 0.94 ± 1.089 cm/s
- CI change [4]: 0.205 ± 0.407 l/min/m^2
- CO change [4]: 0.368 ± 0.735 L/min
- E/A ratio change [4]: −0.356 ± 0.967
- E/e′ ratio change [4]: −2.218 ± 3.193
- LVEF change [4]: 2.06 ± 4.975%
- SV change [4]: 5.203 ± 8.078 ml/beat
- SVI change [4]: 2.913 ± 4.572 ml/beat/m^2
- Sa change [4]: 0.257 ± 0.771 cm/s
- A wave change [5]: 5.56 ± 17.280 cm/s
- CI change [5]: 0.140 ± 0.434 l/min/m2
- CO change [5]: 0.228 ± 0.760 L/min
- E wave change [5]: -9.13 ± 17.464 cm/s
- E/A ratio change [5]: −0.317 ± 0.898
- E/e′ ratio change [5]: −2.028 ± 3.652
- EDT change [5]: 20.37 ± 50.849 ms
- LAA change [5]: −0.84 ± 2.421 cm^2
- LAV change [5]: -4.92 ± 14.390 mL
- S Right V change [5]: 2.00 ± 1.907 cm/s
- SV change [5]: 7.269 ± 8.134 ml/beat
- SVI change [5]: 4.187 ± 4.641 ml/beat/m2
- Sa Left V change [5]: 0.908 ± 0.936 cm/s
- e′ change [5]: 0.01 ± 1.154 cm/s
- A wave change [6]: 11.10 ± 16.498 cm/s
- CI change [6]: 0.140 ± 0.443 l/min/m2
- CO change [6]: 0.239 ± 0.786 L/min
- E wave change [6]: -14.24 ± 24.416 cm/s
- E/A ratio change [6]: −0.722 ± 1.068
- E/e′ ratio change [6]: −3.191 ± 2.623
- EDT change [6]: 9.79 ± 52.212 ms
- LAA change [6]: −2.56 ± 2.972 cm^2
- LAV change [6]: -13.81 ± 17.198 mL
- S Right V change [6]: 1.55 ± 2.012 cm/s
- SV change [6]: 9.339 ± 8.875 ml/beat
- SVI change [6]: 5.318 ± 4.955 ml/beat/m2
- Sa Left V change [6]: 0.803 ± 1.023 cm/s
- e′ change [6]: 0.91 ± 1.792 cm/s
